What was measured:
[1] = test system: PC export transport activity; experiment: Inhibition of PC export transport activity in human hepatocytes (d9-choline, taurocholic acid, LC/MS/MS); type: cell-based; conditions: Hepatocyte, 100 μg/mL d9-choline, 5 mM taurocholic acid, 2 hours; for inhibition at 1 µM: drug 1 μM; for inhibition at 10 µM: drug 10 μM; for inhibition at 100 µM: drug 100 μM
Procedure: (§1) The effect of a test agent in terms of percentage (%) of inhibition on PC export transport and/or formation activity is determined by the following equation: […]
(§2) Fifty mL InVitroGRO HT medium was pre-warmed in a 37° C. water bath. A vial of hepatocyte was removed from a liquid N2 tank and quickly warmed in a 37° C. water bath by holding in hand with slow rotation. As soon as the edge of the frozen cells was separated from the wall of the vial, the frozen cells were poured into the pre-warmed HT medium and the remaining cells in the vial were collected using pipette. The tube was centrifuged at 50 g, 25° C. for 5 minutes, the supernatant was removed and the cell pellet was re-suspended in 8 mL of pre-warmed Williams E buffer, the cell numbers were counted in a hemocytometer. […] The cells were counted in 0.4% Trypan blue (80 μL Williams E buffer+10 μL Trypan blue stock+10 μL cells). The hepatocyte concentration was adjusted with Williams E buffer to meet the objectives of various experiments.
(§3) LC/MS/MS assays: Liquid chromatography was carried out using a Shimadzu (Columbia, Md.) HPLC system consisting of an SCL-10 Avp system controller, two LC-10 ADvp pumps, a CTC HTC PAL autosampler, a Shimadzu SPD-10 ADvp UV detector and an automated switching valve. The switching valve was used to divert the column effluent to either waste or to the MS instrument. The Shimadzu HPLC system was used for sample injection and analyte separation. Each sample was loaded onto a reverse phase column, Phenomenex (Torrance, Calif.) Luna C85μ2 mm×50 mm. The column chamber's temperature was ambient. The initial HPLC mobile phase conditions used for separation and elution of analytes comprised 50% acetonitrile in water containing 0.1% formic acid (A) and isopropanol:acetonitrile (9:1) (B). The flow rate was 0.5 mL/min. The amount of B in the mobile phase was ramped linearly up to 62% over a 0.5-minute period followed by a slow increase to 63% B in 4.5 minutes, then a rapid increase to 95% B in 0.1 min. After holding at 95% B for 2.3 minutes, the mobile phase was reset to the initial conditions in 0.1 minute. The analytical column was equilibrated with the starting mobile phase for 2.5 minutes. The total run time for each sample analysis was approximately 10 minutes.
(§4) The HPLC elute was injected into an AB Sciex AP14000 LC/MS/MS system (Framingham, Mass.) equipped with a Turbo IonSpray source set with a desolvation temperature of 450° C. Nitrogen was used as curtain gas, nebulizer gas, heater gas, and collision gas. Data for PC was acquired in the positive ion mode using multiple reaction monitoring methods (MRM). The ion transitions of the MRM method for specific detection of PC species were developed in standard fashion. Ionspray voltage was set at 4000 V and the collision gas (CAD) set at 6. Declustering potential and collision energy was set at 50 and 42 respectively for PC. The PC species were monitored using the following transitions: 768→193, 770→193, 796→193, 798→193, 792→193, 794→193, 816→193. (S)-(+)-Methyl 2-(4,5,6,7-tetrahydrothieno[3,2-c]pyridin-5-yl)-2-(2-chlorophenyl)acetate hydrogensulfate was used as an internal standard with the following ion transition: 322.2→152.1. Propane-1-sulfonic acid {3-[5-(4-chlorophenyl)-1H-pyrrolo[2,3-b]pyridine-3-carbonyl]-2,4difluoro-phenyl}-amide was also used as an internal standard with the following ion transition: 490.1→383.1.
(§5) Data analysis: Extracellular concentrations of PC were determined by LC/MS/MS MRM analysis of the 4000 RPM supernatant fractions post-incubation. Cellular concentrations of PC were determined by LC/MS/MS MRM of the extracts of hepatocytes post incubation. PC export transport and/or formation activity and test agent percent inhibition were calculated using the following equations: […]

[2] = test system: PC export transport activity; experiment: Inhibition of PC export transport activity in rat hepatocytes (d9-choline, taurocholic acid, LC/MS/MS); type: cell-based; conditions: Hepatocyte, 100 μg/mL d9-choline, 5 mM taurocholic acid, 2 hours; for inhibition at 1 µM: drug 1 μM; for inhibition at 10 µM: drug 10 μM; for inhibition at 100 µM: drug 100 μM
Procedure: as §1, §2, §3, §4, §5

| SMILES | inhibition at 1 µM [1] [%] | inhibition at 10 µM [1] [%] | inhibition at 100 µM [1] [%] | inhibition at 1 µM [2] [%] | inhibition at 10 µM [2] [%] | inhibition at 100 µM [2] [%] |
| --- | --- | --- | --- | --- | --- | --- |
| CC(C)(S)[C@@H](N)C(=O)O [Penicillamine, penicillamine] | ≤ 30 | ≤ 30 | ≤ 30 |  |  |  |
| O=C(O)CCCC[C@@H]1SC[C@@H]2NC(=O)N[C@@H]21 [Biotin, biotin] | ≤ 30 | ≤ 30 | ≤ 30 | ≤ 30 | ≤ 30 | ≤ 30 |
| COC1=CC(=O)C[C@@H](C)[C@]12Oc1c(Cl)c(OC)cc(OC)c1C2=O [Griseofulvin, griseofulvin] |  |  |  | ≤ 30 | 30 to 70 | ≥ 70 |
| CC(=O)N1CCN(c2ccc(OCC3COC(Cn4ccnc4)(c4ccc(Cl)cc4Cl)O3)cc2)CC1 (stereo not drawn) [Ketoconazole, ketoconazole] | ≤ 30 | 30 to 70 | ≥ 70 | 30 to 70 | 30 to 70 | ≥ 70 |
| CC1=C(CC(=O)O)c2cc(F)ccc2/C1=C\c1ccc([S+](C)[O-])cc1 (stereo not drawn) [Sulindac, sulindac] |  |  |  | ≤ 30 | 30 to 70 | ≥ 70 |
| Clc1ccccc1C(c1ccccc1)(c1ccccc1)n1ccnc1 [Clotrimazole, clotrimazole] |  |  |  | ≤ 30 | ≤ 30 | ≥ 70 |
| Cc1c(C)c2c(c(C)c1O)CCC(C)(COc1ccc(CC3SC(=O)NC3=O)cc1)O2 (stereo not drawn) [Troglitazone, troglitazone] | ≤ 30 | 30 to 70 | ≥ 70 |  |  |  |
| CN(C)CCCN1c2ccccc2Sc2ccc(Cl)cc21 [Chlorpromazine, chlorpromazine] | ≤ 30 | 30 to 70 | ≥ 70 | 30 to 70 | ≥ 70 | ≥ 70 |
